{"source": "patent US12491191B2", "about": "“Inhibition of interaction between OCT4 and MAPKAPK2 or DNA-PKcs to regulate c-MYC in cancer” (Texas Tech University System, priority 2019, dated 2025)", "key": {"[1]": {"tested_on": "LHN-R cells", "assay": "13-cisRA response (neurite outgrowth, cell cycle) of resistant LHN-R cells", "type": "cell-based, human", "text": "(§1) FIGS. 4A and 4B provide data showing that protein expression of c-MYC and MYCN in patient-derived neuroblastoma cell lines established from clinical samples collected at diagnosis (Dx) (FIG. 4A) and progressive disease 5 (PD) (FIG. 4B). CHLA-20 and SK—N-BE(2) were used as the positive controls for c-MYC and MYCN. FIG. 4C1 and FIG. 4C2 show dot plots quantitating immunoblotting (IB) data in FIGS. 4A and 4B. The values were normalized in two ways by the intensity of specific proteins in CHLA-20 for c-MYC or SK—N-BE(2) for MYCN and GAPDH. […] Cells were treated with 5 μM 13-cisRA for 14 days. […] Triplicate samples of 10,000 events were collected as single cells for the analyses. […] Relative quantitation (2^−ΔΔCT) was used for the analyses of mRNA expression. […] LDH (cytosolic protein) and Lamin A/C (nuclear protein) were used as fractionation quality controls.\nMetLuc enzymatic activity was measured. CMV immediate early promoter (pCMV IE) was a positive control. […] Left: Locations of the four sets of amplicons (a, b, c, and d) used to detect ChIP-enriched DNA fragments in the MYC enhancer region shown relative to the transcription start site (arrow). Right: PCR results detecting enriched fragments from ChIP assays of each of the 4 amplicons using ChIP-grade OCT4-1 and OCT4-2 antibodies or control normal rabbit IgG antibody. […] Cells were imaged by confocal microscopy. Blue: DAPI stained nucleus, Green: Phalloidin.\nFIGS. 6A-6G show OCT4 interacting proteins by protein identification (ID) and post-translational modification (PTM) and verification of the protein expression and the role of the interacting MK2 protein in 13-cisRA resistance. […] M: Marker, C: cytosolic, N: nuclear. For protein ID, the entire lanes were analyzed, and for PTM, the specific OCT4 band was subjected to mass spectrometry analyses. (Right) OCT4 protein sequence with PTM status identified by mass spectrometry. Underline: mass spectrometry coverage, Green: not phosphorylated or acetylated, Red: phosphorylated, acetylated, or undetermined. […] The direct interaction between OCT4 and MK2 is also confirmed by Ni-NTA pull down (Middle) or immunoprecipitation by FLAG (Right) using purified proteins. […] Cells stably transduced with non-targeting NT-shRNA or MAPKAPK2-shRNA were treated with vehicle control or 13-cisRA for 14 days. […] Cells stably transduced with non-targeting NT-shRNA or MAPKAPK2-shRNA were treated with vehicle control or 13-cisRA for 14 days. […] Cells stably transduced with non-targeting NT-shRNA (20±2% vs 18±3%, 15 p=0.17) or MAPKAPK2-shRNA (19±4% vs 5±1%, p<0.01) were treated with vehicle control or 13-cisRA for 14 days.\nIn LHN-R treated with 13-cisRA, mRNA and protein expression of c-MYC was increased while MYCN remained suppressed (FIGS. 4F and 4G).\nThus, Applicants focused on OCT4 and generated a stable clone of LHN-R with POU5F1 knockdown using a lentiviral vector system by transducing five different short hairpin RNA sequences (POU5F1-shRNA-1 to -5) to evaluate the effect of OCT4 on 13-cisRA resistance in neuroblastoma cells. POU5F1 knockdown decreased c-MYC and Cyclin A protein expression in LHN-R cells (FIG. 5G) relative to a non-targeted control shRNA (NT-shRNA)."}, "[2]": {"tested_on": "SMS-LHN (LHN) cells", "assay": "13-cisRA response of SMS-LHN neuroblastoma cells", "type": "cell-based, human", "settings": "5 μM, initial response", "text": "as §1\nTo determine whether increased c-MYC in PD cell lines might be due to 13-cisRA treatment, the SMS-LHN (LHN) human neuroblastoma cell line (MYCN expression without genomic amplification) was treated with a clinically achievable concentration of 13-cisRA (5 μM), following the clinical dosing schedule used in high-risk patients (2 wks on, 2 wks off, x 6 cycles)."}, "[3]": {"tested_on": "small cell lung cancer cell lines", "assay": "Effect of combination with ABT-737 on c-MYC, cyclin A, PARP and caspase 3", "type": "cell-based, human", "settings": "combined with ABT-737", "description": "(§2) FIGS. 12A-12F illustrate the combination cytotoxic activity of D8 (i.e., narciclasine) and ABT-737 (a BCL-2 inhibitor) in two small cell lung cancer cell lines. The effect of the combination on c-MYC, pOCT4, OCT4, cyclin A, BCL-2 family of proteins, the cleavage of and caspase-3 and PARP were evaluated.\n(§3) Next, Applicants sought to check the activity of narciclasine when combined with other active agents. Venetoclax is currently indicated for chronic lymphocytic leukemia (CLL) and small lymphocytic lymphoma (SLL) patients. […] Thus, Applicants combined narciclasine with ABT-737/ABT-263, pan BCL-2 inhibitors or venetoclax (also known as ABT-199, a BCL-2 inhibitor) to examine the effect of the combination."}, "[4]": {"tested_on": "NCI-H1048 xenograft", "assay": "In vivo xenograft activity, NCI-H1048", "set-up": "species or system mice", "text": "FIGS. 13A-13I show in vivo xenograft activity of M3814, a DNA-PK inhibitor, and ABT-263, a BCL-2 inhibitor, in mice carrying H1048, a human small cell lung cancer cell line.\nFIGS. 14A-14I show in vivo xenograft activity of D8 (narciclasine), a DNA-PK interaction inhibitor, and ABT-199, a BCL-2 inhibitor, in mice carrying H1048, a human small cell lung cancer cell line.\nIn vivo xenograft activity was examined for narciclasine or M3814 in combination with ABT-263 or ABT-199 in two xenograft models of small cell lung cancer, NCI-H1048 and NCI-H847."}, "[5]": {"tested_on": "LHN-R, CHLA-20, COG-N-289, COG-N-334, COG-N-415 cells", "assay": "MK2 inhibitor effect on pOCT4, c-MYC, Cyclin A in neuroblastoma cell lines", "type": "cell-based, human", "description": "FIGS. 8A-8H show higher pMK2 and pOCT4^S111 in PD with high c-MYC. […] CHLA-20 was used as the control for the two membranes. […] The values were normalized in two ways by the expression of specific proteins in CHLA-20 and GAPDH. […] The expression of pOCT4^S111, OCT4, c-MYC, and Cyclin A was evaluated in subcellular fractions. […] The cells transduced with a doxycycline-inducible system to exogenously express OCT4WT or OCT4 S111A mutant, treated with doxycycline (Dox) for 48h followed by cycloheximide (CHX) incubation for various times. The whole cell lysates were subjected to sill immunoblotting.\nThus, pMK2-mediated increased c-MYC expression is not limited to tumors exposed to 13-cisRA. When S111 residue of OCT4 was mutated pOCT4^S111 were not detected by immunoblotting (FIG. 8G). […] MK2 inhibition by a small molecule MK2 inhibitor results in decreased pOCT4."}, "[6]": {"tested_on": "NCI-H847 xenograft", "assay": "In vivo xenograft activity, NCI-H847", "settings": "NCI-H847 xenograft mice", "text": "FIGS. […]\nIn NCI-H847 xenograft mice, narciclasine as a single agent extended the event-free survival of mice compared with vehicle control."}, "[7]": {"tested_on": "NCI-H82, NCI-H847, NCI-H889, NCI-H417 cells", "assay": "c-MYC, pOCT4S93 and apoptosis markers in small cell lung cancer cell lines", "type": "cell-based, human", "settings": "0.3 to 2.5 μM, compared to vehicle control", "description": "FIG. 11 illustrates the effect of narciclasine in c-MYC protein expression. Narciclasine's effect on pOCT4S93 and OCT4 as well as apoptosis (measured by caspase and PARP cleavage) are also assessed in four small cell lung cancer cell lines with high c-MYC expression.\nCompared to vehicle control, narciclasine reduced c-MYC and pOCT4S93 and cleaved PARP and caspase 3 in four small cell lung cancer cell lines (NCI-H82, NCI-H847, NCI-H889, NCI-H417) at the concentration range between 0.3 and 2.5 μM. These experimental results, which are summarized in FIG. 11, indicate that narciclasine induces apoptosis as a cell death mechanism in small cell lung cancer cells."}, "[8]": {"tested_on": "NCI-H1048 cell line", "assay": "Combination cytotoxicity with ABT-737 in NCI-H1048", "type": "cell-based, human", "settings": "combined with ABT-737, narciclasine 10 and 20 nM", "description": "as §2, §3"}, "[9]": {"tested_on": "NCI-H847 cell line", "assay": "Combination cytotoxicity with ABT-737 in NCI-H847", "type": "cell-based, human", "settings": "combined with ABT-737, narciclasine 10 and 20 nM", "description": "as §2, §3"}, "[10]": {"tested_on": "small cell lung cancer cell lines", "assay": "Cytotoxicity in 16 small cell lung cancer cell lines", "type": "cell-based, human", "text": "FIGS. 10A-10E show cytotoxicity of D8 (i.e., narciclasine) and several DNA-PK inhibitors (NU7441, M3814, CC-115, AZD7648) in 16 small cell lung cancer cell lines with high (black and gray bars) or low (white bars) c-MYC expression.\nIn this Example, Applicants examined the cytotoxic activity of narciclasine (i.e., D8) in comparison to DNA-PK inhibitors that are commercially available (including NU7441, M3814, CC-115, and AZD7648) in 16 small cell lung cancer cell lines. […] The IC50 values for narciclasine was less than 100 nM in all cell lines except NCI-H889."}, "[11]": {"tested_on": "MOLM-14 and NB4 cells", "assay": "c-MYC expression and apoptosis in MOLM-14 and NB4", "type": "cell-based, human", "settings": "24 hours, 100 to 200 nM", "text": "FIG. 17 provides data illustrating the effect of D8 (narciclasine) in the expression of c-MYC and apoptosis in two human acute myelogenous leukemia, MOLM-14 and NB4.\nOf the six cell lines, two cell lines (MOLM-14 and NB4) were used to test the effect of narciclasine in c-MYC expression."}, "[12]": {"settings": "single agent, compared with control, NCI-H1048 xenografted mice"}}, "data": [{"smiles": "CC1=C(/C=C/C(C)=C/C=C/C(C)=C\\C(=O)O)C(C)(C)CCC1", "note": "[13-cisRA, 13-cis-retinoic acid]", "values": [{"measurement": "neurite outgrowth and cell cycle arrest", "setting": "[1]; LHN-R after six cycles, 10 days of 13-cisRA treatment", "value": "did not show"}, {"measurement": "cell cycle analysis (FIG. 6G)", "setting": "[1]; MAPKAPK2-shRNA LHN-R, 13-cisRA 14 days (vehicle 19±4%)", "value": "5±1", "unit": "%"}, {"measurement": "cell cycle analysis (FIG. 6G)", "setting": "[1]; NT-shRNA LHN-R, 13-cisRA 14 days (vehicle 20±2%)", "value": "18±3", "unit": "%"}, {"measurement": "S-phase content", "setting": "[1]; NT-shRNA-transduced LHN-R, 13-cisRA 14 days (vehicle 26±3%)", "value": "28±5", "unit": "%"}, {"measurement": "S-phase content", "setting": "[1]; POU5F1 knockdown LHN-R, 13-cisRA 14 days (vehicle 23±4%)", "value": "11±1", "unit": "%"}, {"measurement": "response to 13-cisRA", "setting": "[2]", "value": "arrested proliferation, neurite outgrowth and decreased MYCN protein"}]}, {"smiles": "COc1ccc([C@@H](O)c2cc(-c3ncnc4cc(N5CCOCC5)ccc34)c(F)cc2Cl)nn1", "note": "[M3814, alpha S-[2-chloro-4-fluoro-5-[7-(4-morpholinyl)-4-quinazolinyl]phenyl]-6-methoxy-3-pyridazinem ethano, reference compound]", "values": [{"measurement": "c-MYC downregulation effect and cyclin A suppression effect", "setting": "[3]", "value": "higher"}, {"measurement": "event-free survival", "setting": "[4]; combined with ABT-263, NCI-H1048 xenografted mice", "value": "significantly extended"}, {"measurement": "event-free survival", "setting": "[4]; [12]", "value": "did not affect"}]}, {"smiles": "Cc1ccc(-c2ccc3c(ccc4sc5c(c43)NC[C@@H](C)NC5=O)n2)cn1", "note": "[PF3644022]", "values": [{"measurement": "pOCT4, OCT4S111, c-MYC and Cyclin A", "setting": "[5]", "value": "decreased"}]}, {"smiles": "O=C1N[C@@H]2C(=C[C@H](O)[C@@H](O)[C@H]2O)c2cc3c(c(O)c21)OCO3", "note": "[narciclasine]", "values": [{"measurement": "event-free survival", "setting": "[6]; combination with ABT-199, compared with the single agents", "value": "significantly longer"}, {"measurement": "event-free survival", "setting": "[6]; single agent, compared with vehicle control", "value": "extended"}, {"measurement": "c-MYC downregulation effect and cyclin A suppression effect", "setting": "[3]", "value": "higher"}, {"measurement": "PARP and caspase 3 cleavage", "setting": "[7]", "value": "cleaved"}, {"measurement": "c-MYC and pOCT4S93 expression", "setting": "[7]", "value": "reduced"}, {"measurement": "combination cytotoxic activity", "setting": "[8]", "value": "synergistic cytotoxic activity"}, {"measurement": "combination cytotoxic activity", "setting": "[9]", "value": "synergistic cytotoxic activity"}, {"measurement": "IC50", "setting": "[10]; all of 16 small cell lung cancer cell lines except NCI-H889", "value": "< 100", "unit": "nM"}, {"measurement": "potency in cytotoxicity relative to the agents tested", "setting": "[10]; compared with NU7441, M3814, CC-115, AZD7648", "value": "highest potency"}, {"measurement": "event-free survival", "setting": "[4]; combined with ABT-199, NCI-H1048 xenografted mice", "value": "significantly extended"}, {"measurement": "event-free survival", "setting": "[4]; [12]", "value": "did not affect"}, {"measurement": "PARP and caspase 3 cleavage", "setting": "[11]", "value": "observed"}, {"measurement": "c-MYC expression", "setting": "[11]", "value": "substantially decreased"}]}]}
